# Measurements: ChEMBL document CHEMBL4673260, “Pyridine alkaloids with activity in the central nervous system” (Bioorg Med Chem, 2020)
# pEC50, pIC50, pKi: −log10 of the molar value.
# Experiments:
# [1] = biological target: T1, Muscarinic acetylcholine receptor M1 (Rattus norvegicus) (UniProt P08482); conditions: filed as antagonist, time 40.0 min
# T1 sequence (whole entry): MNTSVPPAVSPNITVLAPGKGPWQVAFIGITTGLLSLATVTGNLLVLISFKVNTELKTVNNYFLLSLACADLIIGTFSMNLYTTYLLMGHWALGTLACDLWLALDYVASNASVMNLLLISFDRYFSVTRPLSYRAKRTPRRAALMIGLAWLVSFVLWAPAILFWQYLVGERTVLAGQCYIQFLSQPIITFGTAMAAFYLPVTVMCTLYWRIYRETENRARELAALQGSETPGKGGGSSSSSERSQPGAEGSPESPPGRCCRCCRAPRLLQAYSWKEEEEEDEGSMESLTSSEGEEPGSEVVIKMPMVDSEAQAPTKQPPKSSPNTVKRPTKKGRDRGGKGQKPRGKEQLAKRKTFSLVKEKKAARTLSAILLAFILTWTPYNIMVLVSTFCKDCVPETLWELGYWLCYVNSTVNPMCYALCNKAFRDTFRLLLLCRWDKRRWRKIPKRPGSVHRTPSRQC
# [2] = biological target: T1, Muscarinic acetylcholine receptor M1 (Rattus norvegicus); conditions: filed as antagonist, time 60.0 min
# [3] = biological target: T2, Neuronal acetylcholine receptor; alpha4/beta2 (Homo sapiens, UniProt P17787+P43681)
# Description: Displacement of [3H]cytisine from human alpha4beta2 nAChR by Cheng-Prusoff equation analysis
# [4] = biological target: T3, Neuronal acetylcholine receptor subunit alpha-7 (Rattus norvegicus, UniProt Q05941)
# Description: Displacement of [3H]MLA from rat alpha7 nAChR by liquid scintillation counting
# [5] = biological target: T4, Dopamine beta-hydroxylase (Bos taurus) (UniProt P15101); assay: Inhibition of bovine adrenal medulla DBH at 5 uM relative to control
# T4 sequence (whole entry): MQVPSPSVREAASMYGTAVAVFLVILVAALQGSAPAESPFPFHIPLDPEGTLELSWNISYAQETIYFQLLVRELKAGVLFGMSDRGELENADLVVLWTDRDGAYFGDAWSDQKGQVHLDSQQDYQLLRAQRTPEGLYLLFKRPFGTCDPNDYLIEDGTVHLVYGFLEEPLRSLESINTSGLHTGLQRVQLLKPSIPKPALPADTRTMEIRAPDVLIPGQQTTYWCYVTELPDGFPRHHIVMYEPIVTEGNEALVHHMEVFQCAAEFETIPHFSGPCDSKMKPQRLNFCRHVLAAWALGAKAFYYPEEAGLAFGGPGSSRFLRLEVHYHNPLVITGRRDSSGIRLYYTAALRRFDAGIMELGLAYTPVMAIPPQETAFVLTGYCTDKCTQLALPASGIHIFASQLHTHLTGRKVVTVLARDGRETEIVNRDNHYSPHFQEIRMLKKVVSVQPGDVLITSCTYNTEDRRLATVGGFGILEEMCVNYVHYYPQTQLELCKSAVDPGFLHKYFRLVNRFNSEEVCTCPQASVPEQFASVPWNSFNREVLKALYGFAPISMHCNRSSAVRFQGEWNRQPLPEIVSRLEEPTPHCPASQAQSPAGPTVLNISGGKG
# [6] = biological target: T4, Dopamine beta-hydroxylase (Bos taurus); assay: Inhibition of bovine adrenal medulla DBH at 0.5 uM relative to control
# [7] = biological target: T5, Acetylcholinesterase (Homo sapiens, UniProt P22303); assay: Inhibition of acetylcholinesterase (unknown origin) using acetylthiocholine iodide as substrate incubated for 30 mins by Ellman's coupled enzyme assay
# [8] = biological target: T5, Acetylcholinesterase
# [9] = biological target: T2, Neuronal acetylcholine receptor; alpha4/beta2; remark: listed apart in the source
# Description: Displacement of [3H]cytisine from human alpha4beta2 nAChR by radioligand competition analysis
# [10] = biological target: Neuronal acetylcholine receptor; alpha4/beta2 (Rattus norvegicus, UniProt P09483+P12390); assay: Displacement of [3H]-cytisine from rat brain membrane alpha4beta2 nAChR; type: cell membranes
# [11] = biological target: T2, Neuronal acetylcholine receptor; alpha4/beta2; assay: Agonist activity at human alpha4beta2 nAChR expressed in Xenopus oocytes; type: cell-based, Oocyte
# [12] = biological target: T2, Neuronal acetylcholine receptor; alpha4/beta2; assay: Agonist activity at human alpha4beta2 nAChR expressed in Xenopus oocytes relative to control; type: cell-based; conditions: Oocyte, filed as agonist
# [13] = Displacement of [3H]-(-)-nicotine from rat cerebral cortex nAChR incubated for 60 mins by liquid scintillation spectrometry
# [14] = biological target: Muscarinic acetylcholine receptor M3 (Rattus norvegicus, UniProt P08483); assay: Inhibition of [3H]-methyl-quinuclidinyl benzilate binding to rat salivary gland muscarinic M3 receptor by radioligand binding assay
# [15] = biological target: T6, Muscarinic acetylcholine receptor M1 (Rattus norvegicus, UniProt P08482); assay: Inhibition of [3H]-methyl-quinuclidinyl benzilate binding to rat brain muscarinic M1 receptor by radioligand binding assay
# T6 sequence (P08482 whole entry): T1 sequence (whole entry)
# [16] = biological target: T7, Muscarinic acetylcholine receptor M2 (Rattus norvegicus, UniProt P10980); assay: Inhibition of [3H]-methyl-quinuclidinyl benzilate binding to rat heart muscarinic M2 receptor by radioligand binding assay
# T7 sequence (P10980 whole entry): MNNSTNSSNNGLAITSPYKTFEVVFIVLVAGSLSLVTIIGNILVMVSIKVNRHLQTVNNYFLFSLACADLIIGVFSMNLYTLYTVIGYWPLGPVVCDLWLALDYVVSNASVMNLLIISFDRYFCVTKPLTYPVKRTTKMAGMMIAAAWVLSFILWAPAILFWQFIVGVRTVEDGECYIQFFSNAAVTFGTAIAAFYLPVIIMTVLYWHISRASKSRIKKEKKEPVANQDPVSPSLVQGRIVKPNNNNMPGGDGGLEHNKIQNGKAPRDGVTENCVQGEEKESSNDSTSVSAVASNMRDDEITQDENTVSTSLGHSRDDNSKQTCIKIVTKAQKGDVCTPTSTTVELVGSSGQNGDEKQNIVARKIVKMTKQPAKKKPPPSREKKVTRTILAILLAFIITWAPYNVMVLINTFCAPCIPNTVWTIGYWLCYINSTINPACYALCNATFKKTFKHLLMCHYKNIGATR
# [17] = biological target: T8, Neuronal acetylcholine receptor; alpha4/beta2 (Rattus norvegicus) (UniProt P09483+P12390); assay: Agonist activity at rat alpha4beta2 expressed in Xenopus oocytes assessed as peak activation at 100 uM relative to control; type: cell-based; conditions: Oocyte, filed as agonist
# [18] = Toxicity in iv dosed Swiss-Webster mouse by up-and-down method; type: organism-based; conditions: in vivo
# [19] = biological target: T3, Neuronal acetylcholine receptor subunit alpha-7; assay: Displacement of 125I-alpha-bungarotoxin from rat brain alpha7 nAChR by radioligand binding assay
# [20] = biological target: Neuronal acetylcholine receptor; alpha3/beta4 (Homo sapiens) (UniProt P30926+P32297); assay: Agonist activity at human alpha3beta4 nAChR expressed in mouse/rat hybrid F11 cells assessed as increase in rubidium-86 efflux; type: cell-based; conditions: filed as agonist
# [21] = biological target: T2, Neuronal acetylcholine receptor; alpha4/beta2; assay: Agonist activity at human brain alpha4beta2 nAChR expressed in CHO cells assessed as maximal receptor response by patch clamp electrophysiological assay relative to control; type: cell-based; conditions: filed as agonist
# [22] = biological target: Neuronal acetylcholine receptor subunit alpha-7 (Homo sapiens, UniProt P36544); conditions: filed as agonist
# Description: Agonist activity at human alpha7 nAChR (unknown origin)
# [23] = biological target: T8, Neuronal acetylcholine receptor; alpha4/beta2 (Rattus norvegicus); assay: Agonist activity at alpha4beta2 nAChR in rat thalamic synaptosomes assessed as 86Rb efflux relative to tetramethylammonium; type: subcellular; conditions: Thalamus, filed as agonist
# [24] = system: Torpedo; assay: Agonist activity at Torpedo alpha1beta1deltagamma nACHR; conditions: filed as agonist
# [25] = species on record: Rattus norvegicus; assay: Agonist activity at nAChR in rat striatal synaptosomes assessed as [3H]dopamine release relative to tetramethylammonium; type: subcellular; conditions: Striatum, filed as agonist
# [26] = Neurotoxicity in ip dosed mouse assessed as induction of hindlimb tonic extension; type: toxicity, organism-based; conditions: in vivo
# [27] = Neurotoxicity in ip dosed mouse assessed as mouse death; type: toxicity, organism-based; conditions: in vivo
# [28] = Neurotoxicity in ip dosed mouse assessed as induction of epileptic convulsion; type: toxicity, organism-based; conditions: in vivo
# [29] = species on record: Mus musculus; assay: animal or person
# Description: Antinociceptive activity in naloxone treated mouse assessed as induction of Straub-tail response
# [30] = Induction of neurotoxicity in cray fish measured after 24 hrs; conditions: procambarus clarkii
# [31] = biological target: Acetylcholinesterase (Electrophorus electricus) (UniProt O42275); assay: Inhibition of electric eel acetylcholinesterase using acetylthiocholine iodide as substrate by Ellman's method relative to control; conditions: concentration not given here
# Chain of Acetylcholinesterase (Electrophorus electricus) (O42275 24-633 limits assumed): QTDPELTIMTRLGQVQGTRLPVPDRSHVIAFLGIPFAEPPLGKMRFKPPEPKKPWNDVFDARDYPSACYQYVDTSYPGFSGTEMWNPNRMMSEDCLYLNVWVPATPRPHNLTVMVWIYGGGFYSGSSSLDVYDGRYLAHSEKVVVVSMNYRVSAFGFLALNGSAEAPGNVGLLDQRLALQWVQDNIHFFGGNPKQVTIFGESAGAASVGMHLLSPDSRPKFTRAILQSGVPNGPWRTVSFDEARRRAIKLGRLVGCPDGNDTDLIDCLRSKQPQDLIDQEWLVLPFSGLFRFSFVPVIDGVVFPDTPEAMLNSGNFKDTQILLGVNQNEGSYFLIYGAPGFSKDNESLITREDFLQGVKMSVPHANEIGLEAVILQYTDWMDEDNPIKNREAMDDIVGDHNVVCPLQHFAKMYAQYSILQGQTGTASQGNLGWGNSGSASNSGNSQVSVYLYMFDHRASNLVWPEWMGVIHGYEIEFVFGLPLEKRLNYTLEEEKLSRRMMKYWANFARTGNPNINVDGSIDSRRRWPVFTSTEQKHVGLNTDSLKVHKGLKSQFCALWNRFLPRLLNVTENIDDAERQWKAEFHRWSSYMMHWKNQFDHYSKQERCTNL
# T2 sequence (P17787 whole entry): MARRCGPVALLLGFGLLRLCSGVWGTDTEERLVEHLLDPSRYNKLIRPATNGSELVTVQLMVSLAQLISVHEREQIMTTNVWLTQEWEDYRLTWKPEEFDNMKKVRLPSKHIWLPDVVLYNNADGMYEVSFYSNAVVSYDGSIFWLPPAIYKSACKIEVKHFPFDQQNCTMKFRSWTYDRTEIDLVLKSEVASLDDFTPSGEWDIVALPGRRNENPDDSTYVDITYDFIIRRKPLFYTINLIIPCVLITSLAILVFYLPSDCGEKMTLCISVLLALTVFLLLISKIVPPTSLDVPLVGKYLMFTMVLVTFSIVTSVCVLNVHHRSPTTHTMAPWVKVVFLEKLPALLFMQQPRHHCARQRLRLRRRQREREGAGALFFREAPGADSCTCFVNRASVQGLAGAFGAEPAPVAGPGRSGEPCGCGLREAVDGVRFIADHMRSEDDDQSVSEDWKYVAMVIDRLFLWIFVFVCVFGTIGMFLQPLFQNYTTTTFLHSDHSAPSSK
# T2 sequence (P43681 whole entry): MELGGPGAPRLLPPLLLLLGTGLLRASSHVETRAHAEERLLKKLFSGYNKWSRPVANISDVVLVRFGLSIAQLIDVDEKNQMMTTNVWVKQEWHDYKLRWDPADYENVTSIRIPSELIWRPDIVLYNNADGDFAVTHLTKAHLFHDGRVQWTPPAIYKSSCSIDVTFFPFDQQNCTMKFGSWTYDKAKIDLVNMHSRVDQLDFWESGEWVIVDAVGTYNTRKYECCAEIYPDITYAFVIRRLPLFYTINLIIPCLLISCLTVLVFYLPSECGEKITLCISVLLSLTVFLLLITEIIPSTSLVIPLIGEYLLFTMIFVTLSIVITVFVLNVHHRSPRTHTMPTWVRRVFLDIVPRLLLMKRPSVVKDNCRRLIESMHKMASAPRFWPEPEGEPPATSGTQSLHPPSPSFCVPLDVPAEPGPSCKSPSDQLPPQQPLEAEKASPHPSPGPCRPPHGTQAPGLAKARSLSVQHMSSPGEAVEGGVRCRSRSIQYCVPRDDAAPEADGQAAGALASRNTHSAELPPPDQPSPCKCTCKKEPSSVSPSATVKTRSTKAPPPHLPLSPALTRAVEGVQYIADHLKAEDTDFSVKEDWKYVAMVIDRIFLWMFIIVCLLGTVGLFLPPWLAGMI
# T5 sequence (P22303 whole entry): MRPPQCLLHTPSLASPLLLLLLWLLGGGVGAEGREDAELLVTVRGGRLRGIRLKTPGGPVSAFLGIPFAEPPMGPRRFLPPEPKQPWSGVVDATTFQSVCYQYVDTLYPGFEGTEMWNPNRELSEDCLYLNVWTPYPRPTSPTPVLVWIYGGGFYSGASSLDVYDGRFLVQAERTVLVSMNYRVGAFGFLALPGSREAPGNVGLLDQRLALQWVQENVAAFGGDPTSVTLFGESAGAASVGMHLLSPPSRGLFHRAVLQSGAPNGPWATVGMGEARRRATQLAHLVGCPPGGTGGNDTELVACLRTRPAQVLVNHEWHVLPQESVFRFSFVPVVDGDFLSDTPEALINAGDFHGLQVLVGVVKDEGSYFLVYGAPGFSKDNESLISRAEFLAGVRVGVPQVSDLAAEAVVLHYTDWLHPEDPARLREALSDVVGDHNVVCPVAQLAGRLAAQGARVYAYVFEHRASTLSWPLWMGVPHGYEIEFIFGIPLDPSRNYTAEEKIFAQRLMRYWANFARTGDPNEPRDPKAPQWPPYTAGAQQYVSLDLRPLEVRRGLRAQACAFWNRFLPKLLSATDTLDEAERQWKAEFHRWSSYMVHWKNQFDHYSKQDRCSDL
# Chain of Muscarinic acetylcholine receptor M3 (P08483 whole entry): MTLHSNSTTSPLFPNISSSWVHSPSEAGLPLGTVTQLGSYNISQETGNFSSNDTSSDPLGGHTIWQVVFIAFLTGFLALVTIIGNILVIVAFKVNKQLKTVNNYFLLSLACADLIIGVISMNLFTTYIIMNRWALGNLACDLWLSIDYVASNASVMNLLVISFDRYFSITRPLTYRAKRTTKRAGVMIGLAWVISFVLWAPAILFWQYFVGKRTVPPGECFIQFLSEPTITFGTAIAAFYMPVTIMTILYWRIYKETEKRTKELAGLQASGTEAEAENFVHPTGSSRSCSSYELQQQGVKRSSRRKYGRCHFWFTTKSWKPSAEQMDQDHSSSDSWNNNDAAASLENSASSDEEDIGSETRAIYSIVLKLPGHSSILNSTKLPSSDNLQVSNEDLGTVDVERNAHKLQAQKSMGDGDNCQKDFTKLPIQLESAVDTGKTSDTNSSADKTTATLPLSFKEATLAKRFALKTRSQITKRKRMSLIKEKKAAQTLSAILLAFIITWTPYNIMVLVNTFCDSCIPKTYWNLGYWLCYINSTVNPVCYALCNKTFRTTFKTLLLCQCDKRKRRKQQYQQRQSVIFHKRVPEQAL
# Chain of Neuronal acetylcholine receptor; alpha4/beta2 (Rattus norvegicus, UniProt P09483+P12390) (P09483 whole entry): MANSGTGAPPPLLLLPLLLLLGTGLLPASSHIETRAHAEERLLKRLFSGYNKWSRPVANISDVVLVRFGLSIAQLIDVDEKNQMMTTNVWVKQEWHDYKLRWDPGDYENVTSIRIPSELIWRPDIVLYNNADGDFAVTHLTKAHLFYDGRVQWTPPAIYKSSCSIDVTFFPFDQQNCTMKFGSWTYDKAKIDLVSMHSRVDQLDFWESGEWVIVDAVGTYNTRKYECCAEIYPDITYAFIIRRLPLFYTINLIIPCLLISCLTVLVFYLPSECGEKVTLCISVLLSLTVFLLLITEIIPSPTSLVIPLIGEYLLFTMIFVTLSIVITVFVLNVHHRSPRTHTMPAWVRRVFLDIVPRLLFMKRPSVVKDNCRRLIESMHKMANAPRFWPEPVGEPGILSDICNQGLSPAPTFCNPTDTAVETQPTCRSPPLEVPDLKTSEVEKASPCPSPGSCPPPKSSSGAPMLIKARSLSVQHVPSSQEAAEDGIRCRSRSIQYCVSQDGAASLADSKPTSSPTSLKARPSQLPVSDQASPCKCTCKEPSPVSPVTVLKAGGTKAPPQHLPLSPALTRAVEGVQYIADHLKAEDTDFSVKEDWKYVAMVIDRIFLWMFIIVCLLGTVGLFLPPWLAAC
# Chain of Neuronal acetylcholine receptor; alpha4/beta2 (Rattus norvegicus, UniProt P09483+P12390) (P12390 whole entry): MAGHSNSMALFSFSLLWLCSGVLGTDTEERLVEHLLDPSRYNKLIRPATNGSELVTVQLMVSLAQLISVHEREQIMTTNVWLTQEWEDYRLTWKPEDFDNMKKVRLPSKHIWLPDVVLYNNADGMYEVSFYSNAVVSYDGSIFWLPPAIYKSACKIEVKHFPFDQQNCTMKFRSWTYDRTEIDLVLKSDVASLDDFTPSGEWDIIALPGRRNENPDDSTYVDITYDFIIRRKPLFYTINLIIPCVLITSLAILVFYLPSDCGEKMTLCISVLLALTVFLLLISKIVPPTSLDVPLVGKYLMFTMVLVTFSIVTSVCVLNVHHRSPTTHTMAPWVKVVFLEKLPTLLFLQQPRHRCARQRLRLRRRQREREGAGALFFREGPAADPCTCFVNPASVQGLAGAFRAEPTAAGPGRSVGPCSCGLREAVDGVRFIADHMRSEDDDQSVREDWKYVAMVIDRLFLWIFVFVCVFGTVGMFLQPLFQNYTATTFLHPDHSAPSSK
# T3 sequence (Q05941 whole entry): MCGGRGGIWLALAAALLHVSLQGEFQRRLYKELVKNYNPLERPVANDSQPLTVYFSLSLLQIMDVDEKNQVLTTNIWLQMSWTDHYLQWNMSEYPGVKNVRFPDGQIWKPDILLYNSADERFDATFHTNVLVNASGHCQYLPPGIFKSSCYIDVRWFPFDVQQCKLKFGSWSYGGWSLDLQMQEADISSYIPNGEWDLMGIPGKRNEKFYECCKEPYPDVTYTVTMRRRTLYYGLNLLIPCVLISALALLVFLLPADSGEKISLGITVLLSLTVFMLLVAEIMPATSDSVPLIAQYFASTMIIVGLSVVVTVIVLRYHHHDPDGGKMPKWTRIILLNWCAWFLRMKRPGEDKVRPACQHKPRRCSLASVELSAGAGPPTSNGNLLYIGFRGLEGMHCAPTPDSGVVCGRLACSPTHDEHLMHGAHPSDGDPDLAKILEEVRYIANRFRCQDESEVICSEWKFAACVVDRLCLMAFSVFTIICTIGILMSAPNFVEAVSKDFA
smiles,measurement,setting,value
Clc1ccc(C2CC3CCC2N3)cn1 (stereo in doubt; (-)),Kapp,[1],1.4 µM
same,Kapp,[2],16 µM
C[N+](C)(C)CCOC(N)=O,Kapp,[1],0.0049 µM
same,Kapp,[2],22 µM
O=c1cccc2n1C[C@@H]1CNC[C@H]2C1 [CYTISINICLINE],pKi,[3],9.55
same,pKi,[4],5.77
O=C(O)c1ccccn1,inhibition,[5],83%
same,inhibition,[6],55%
C[C@@H]1CC[C@H]2[C@H](C(=O)c3c(O)c([C@@]4(O)CC[C@@H](O)[C@H]5O[C@H]54)cn(O)c3=O)[C@H](C)C=C[C@@H]2C1,pIC50,[7],4.41
CCCCCCCCCCCCCCCCc1ccc(C(=O)[O-])c[n+]1C,pIC50,[8],2.55
C[C@@H]1CC2N(C)CC3c4cccc(=O)n4CC2(O)C31 (some centres undefined),pKi,[3],7.06
same,pIC50,[9],6.59
C1=C[C@@H](c2cccnc2)NCC1,pKi,[10],6.97
same,pEC50,[11],6.00
same,Imax,[12],78.7%
Clc1ccc(C2CC3CCC2N3)cn1 (stereo in doubt; (-)) [EPIBATIDINE],pIC50,[13],9.62
c1cc2c[n+](c1)CCCCCCCCCCCCCCc1ccc[n+](c1)CCCCCCCCCCCCC2,pIC50,[14],3.47
same,pIC50,[15],3.56
same,pIC50,[16],3.76
c1cc2c[n+](c1)CCCCCCCCCCCCCc1ccc[n+](c1)CCCCCCCCCCCCC2,pIC50,[14],3.71
same,pIC50,[15],3.79
same,pIC50,[16],4.14
CC(=O)OCC[N+](C)(C)C,Activity,[17],242%
c1cc2c[n+](c1)CCCCCCCCCCCCc1ccc[n+](c1)CCCCCCCCCCCC2,pIC50,[14],4.01
same,pIC50,[15],4.02
same,pIC50,[16],4.44
C[C@@H]1CC2NCC3c4cccc(=O)n4CC2C31 (some centres undefined),pKi,[3],8.80
same,pIC50,[9],8.32
CCCCCCCCCCCCCCCCc1c(C(=O)[O-])ccc[n+]1C,pIC50,[8],2.68
C1=C[C@H](c2cccnc2)NCC1,pKi,[10],6.87
same,pEC50,[11],6.51
same,Imax,[12],102%
c1cc2c[n+](c1)CCCCCCCCCCCCCc1ccc[n+](c1)CCCCCCCCCCCC2,pIC50,[14],3.83
same,pIC50,[15],3.96
same,pIC50,[16],4.37
C[C@@H]1CC[C@H]2[C@H](C(=O)c3c4c(cn(O)c3=O)[C@@]3(O)CC[C@H](O)[C@H](O4)[C@@H]3O)[C@H](C)C=C[C@@H]2C1,pIC50,[7],4.33
c1cncc([C@H]2CCCCN2)c1,LD50,[18],11 mg/kg
same,pKi,[19],5.43
c1cc2c[n+](c1)CCCCCCCCCCCCCCc1ccc[n+](c1)CCCCCCCCCCCC2,pIC50,[14],3.55
same,pIC50,[15],3.63
same,pIC50,[16],4.10
CN1CCC[C@H]1c1cccnc1,ED50,[20],14 µM
same,Imax,[21],159%
same,ED50,[22],40 µM
same,Activity,[17],333%
same,Emax,[23],87%
same,ED50,[24],250 µM
same,Emax,[25],113%
CN1CC2c3cccc(=O)n3CC3C2[C@H](CO)CC31 (some centres undefined),pKi,[3],8.89
same,pIC50,[9],8.41
CO[C@]1(c2cn(O)c(=O)c(C(=O)[C@H]3[C@@H]4CC[C@@H](C)C[C@H]4C=C[C@H]3C)c2O)CC[C@@H](O)[C@H]2O[C@H]21,pIC50,[7],6.09
c1cc2c[n+](c1)CCCCCCCCCCCCCCc1ccc[n+](c1)CCCCCCCCCCCCCC2,pIC50,[14],3.21
same,pIC50,[15],3.33
same,pIC50,[16],3.71
O=C(O)C[C@@H]1[C@@H](C(=O)O)NC[C@@H]1c1ccc(C(=O)O)[nH]c1=O,LD,[26],7 mg/kg
same,LD,[27],7 mg/kg
same,LD,[28],7 mg/kg
O=C(O)C[C@@H]1[C@@H](C(=O)O)NC[C@@H]1c1ccc(=O)[nH]c1C(=O)O,LD,[26],8 mg/kg
same,LD,[27],8 mg/kg
same,LD,[28],8 mg/kg
CN1CC[C@]23c4c5ccc(O)c4O[C@H]2[C@@H](O)C=C[C@H]3[C@H]1C5 [MORPHINE],ED50,[29],10 mg/kg
Cc1cc([C@@H]2CCCN2C)on1,Emax,[25],91%
c1cncc(-c2cc(-c3cccnc3-c3cccnc3)ccn2)c1,LD50,[30],> 240 µg
O=C(O)[C@H]1CCCC[C@@H]1c1c[nH]c(=O)cc1O,inhibition,[31],57.5%
"c1ccc(-c2cccnc2)nc1 [[2,3'']Bipyridinyl]",LD50,[30],94 µg
CCCCCCCCCCCCCCCCc1cc[n+](C)cc1C(=O)[O-],pIC50,[8],2.59
O=C(O)C[C@@H]1[C@@H](C(=O)O)NC[C@@H]1c1ccc(=O)[nH]c1,LD,[26],10 mg/kg
same,LD,[27],10 mg/kg
same,LD,[28],10 mg/kg
